From patent US20100016285A1, “HETEROCYCLIDENE-N-(ARYL) ACETAMIDE DERIVATIVE” (MOCHIDA PHARMACEUTICAL CO., LTD., priority 2007, published 2010)

Target: T1, human TRPV1 (Homo sapiens, UniProt Q8NER1)
T1 construct: expressed in transfected cells; host or cells: CHO-K1 cells, pCAGGS vector, clones selected by limiting dilution
Assay: Capsaicin-induced Ca influx in transformed CHO cells, FDSS-6000 (b-1), A2 value
Type: cell-based
Conditions: concentration shifting the capsaicin concentration-reaction curve two times rightward; CHO cells expressing TRPV1
Excerpt: (1) Measurement of Capsaicin-Induced Ca Influx in a Transformed CHO Cell Line Expressing Human TRPV1
(a) Establishment of a Transformed CHO Cell Line Expressing Human and Rat TRPV1
Human and rat vanilloid receptor 1 (hTRPV1 and rTRPV1) cDNA was cloned from human brain and rat dorsal root ganglion, respectively. The cloned TRPV1 cDNA was incorporated in a pCAGGS vector. The vector was introduced to a CHO-K1 cell line, thus performing transformation. Clones obtained by limiting dilution were stimulated with capsaicin. Clones with a high responsiveness were selected using an increase in the Ca concentration as an indicator. The selected clones were used for the following experiment.
(b-1) Measurement of Ca Influx using FDSS-6000
The transformed CHO cells expressing human or rat TRPV1 were seeded in a 96-well plate (with black walls and transparent bottoms, manufactured by Greiner) at a density of 40,000 cells per well. The cells were cultured at 37° C. in 5% CO2 atmosphere for one night. A loading solution of FLIPR Calcium 3 assay kit (manufactured by Molecular Devices Corporation) containing 2.5 mmol/L of probenecid was then added to each of the wells in the same amount as the culture medium, and the cells were cultured at 37° C. for 60 minutes. For three minutes after the cells were stimulated with capsaicin (1 nmol/L to 1 μmol/L), the change of the intracellular Ca concentration was measured using FDSS-6000 (λex: 480 nm, λem: […], manufactured by Hamamatsu Photonics K.K.). The integrated values of the increase rate of the intracellular Ca concentration were calculated for a group treated with the compounds of the present invention and a group treated with a vehicle, thus allowing capsaicin concentration-reaction curves to be obtained. A concentration (A2 value) of each of the compounds of the present invention, at which the capsaicin concentration-reaction curve obtained when the cells were treated with the vehicle was shifted two times rightward, was calculated. The inhibitory effects of the test compounds were compared using this value as an indicator.

T1 sequence (Q8NER1 whole entry): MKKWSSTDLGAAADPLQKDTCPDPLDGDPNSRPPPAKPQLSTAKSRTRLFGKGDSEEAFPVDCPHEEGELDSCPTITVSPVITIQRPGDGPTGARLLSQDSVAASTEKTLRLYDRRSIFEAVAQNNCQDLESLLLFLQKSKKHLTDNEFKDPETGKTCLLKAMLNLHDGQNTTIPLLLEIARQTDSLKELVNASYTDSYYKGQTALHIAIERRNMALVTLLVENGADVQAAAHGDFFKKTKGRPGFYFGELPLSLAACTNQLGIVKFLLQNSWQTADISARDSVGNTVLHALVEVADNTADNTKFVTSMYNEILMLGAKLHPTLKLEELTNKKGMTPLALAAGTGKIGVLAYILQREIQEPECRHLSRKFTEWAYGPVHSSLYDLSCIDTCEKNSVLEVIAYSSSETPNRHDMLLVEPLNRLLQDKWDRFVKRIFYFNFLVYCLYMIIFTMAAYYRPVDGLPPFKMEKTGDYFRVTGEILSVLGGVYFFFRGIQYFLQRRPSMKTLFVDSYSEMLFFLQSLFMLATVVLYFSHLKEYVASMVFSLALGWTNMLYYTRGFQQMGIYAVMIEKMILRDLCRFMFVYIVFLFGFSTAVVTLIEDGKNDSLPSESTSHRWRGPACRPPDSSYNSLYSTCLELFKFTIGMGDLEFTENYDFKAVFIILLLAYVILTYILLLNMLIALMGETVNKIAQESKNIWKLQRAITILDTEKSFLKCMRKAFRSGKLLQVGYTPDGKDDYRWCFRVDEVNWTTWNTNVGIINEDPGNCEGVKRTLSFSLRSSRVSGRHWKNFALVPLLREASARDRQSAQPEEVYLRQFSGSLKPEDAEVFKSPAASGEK

SMILES	A2 value
CN1c2ccc(NC(=O)/C=C3\CCCOc4cc(C(F)(F)F)ccc43)cc2NC(=O)C1(C)C [EXAMPLE 11, (E)-2-(8-trifluoromethyl-3,4-dihydrobenzo[b]oxepin-5(2H)-ylidene)-N-(3,3-dimethyl-4-methyl-3,4-dihydro-2(1H)-quinoxalinon-7-yl)acetamide]	A (A2 value of less than 100 nM)
COCCN1Cc2ccc(NC(=O)/C=C3\CCCOc4cc(C(F)(F)F)ccc43)cc2NC1=O [EXAMPLE 16, (E)-2-(8-trifluoromethyl-3,4-dihydrobenzo[b]oxepin-5(2H)-ylidene)-N-(3-(2-methoxyethyl)-3,4-dihydro-2(1H)-quinazolinon-7-yl)acetamide]	A (A2 value of less than 100 nM)
O=C(/C=C1\CCCOc2cc(C(F)(F)F)ccc21)Nc1ccc2c(c1)NS(=O)(=O)NC2 [EXAMPLE 17, (E)-2-(8-trifluoromethyl-3,4-dihydrobenzo[b]oxepin-5(2H)-ylidene)-N-(3,4-dihydro-2,2-dioxo-1-H-2,1,3-benzothiadiazin-7-yl)acetamide]	A (A2 value of less than 100 nM)
CC1(C)C/C(=C\C(=O)Nc2ccc3c(c2)NC(=O)CC3)c2ccc(C(F)(F)F)cc2O1 [EXAMPLE 24, (E)-2-(7-trifluoromethyl-2,2-dimethylchroman-4-ylidene)-N-(3,4-dihydroquinolin-2(1H)-on-7-yl)acetamide]	A (A2 value of less than 100 nM)
CN1C(=O)CCc2ccc(NC(=O)/C=C3\CC(C)(C)Oc4cc(C(F)(F)F)ccc43)cc21 [EXAMPLE 25, (E)-2-(7-trifluoromethyl-2,2-dimethylchroman-4-ylidene)-N-(1-methyl-3,4-dihydro-2(1H)-quinolinon-7-yl)acetamide]	A (A2 value of less than 100 nM)
O=C(/C=C1\NCCOc2cc(C(F)(F)F)ccc21)Nc1ccc2c(c1)NC(=O)CC2 [EXAMPLE 27, (Z)-2-(8-trifluoromethyl-3,4-dihydrobenzo[f][1,4]oxazepin-5(2H)-ylidene)-N-(3,4-dihydroquinolin-2(1H)-on-7-yl)acetamide]	A (A2 value of less than 100 nM)
O=C(/C=C1\CCCOc2cc(C(F)(F)F)ccc21)Nc1ccc2c(c1)NC(=O)C(N1CCOCC1)C2 (centres unmarked) [EXAMPLE 34, (E)-2-(8-trifluoromethyl-3,4-dihydrobenzo[b]oxepin-5(2H)-ylidene)-N-(3-(4-morpholinyl)-3,4-dihydro-2(1H)-quinolinon-7-yl)acetamide]	A (A2 value of less than 100 nM)
O=C(/C=C1\CCCOc2cc(C(F)(F)F)ccc21)Nc1ccc2c(c1)NC(=O)N(Cc1ccccc1)C2 [EXAMPLE 38, (E)-2-(8-trifluoromethyl-3,4-dihydrobenzo[b]oxepin-5(2H)-ylidene)-N-(3-benzyl-3,4-dihydro-2(1H)-quinazolinon-7-yl)acetamide]	A (A2 value of less than 100 nM)
CN1C(=O)N(Cc2ccccc2)Cc2ccc(NC(=O)/C=C3\CCCOc4cc(C(F)(F)F)ccc43)cc21 [EXAMPLE 39, (E)-2-(8-trifluoromethyl-3,4-dihydrobenzo[b]oxepin-5(2H)-ylidene)-N-(3-benzyl-1-methyl-3,4-dihydro-2(1H)-quinazolinon-7-yl)acetamide]	A (A2 value of less than 100 nM)
CC1(CO)Nc2ccc(NC(=O)/C=C3\CCCOc4cc(C(F)(F)F)ccc43)cc2NC1=O (centres unmarked) [EXAMPLE 40, (E)-2-(8-trifluoromethyl-3,4-dihydrobenzo[b]oxepin-5(2H)-ylidene)-N-(3-hydroxymethyl-3-methyl-3,4-dihydro-2(1H)-quinoxalinon-7-yl)acetamide]	A (A2 value of less than 100 nM)
CN1c2ccc(NC(=O)/C=C3\CCCOc4cc(C(F)(F)F)ccc43)cc2NC(=O)C1(C)CO (centres unmarked) [EXAMPLE 41, (E)-2-(8-trifluoromethyl-3,4-dihydrobenzo[b]oxepin-5(2H)-ylidene)-N-(3-hydroxymethyl-3,4-dimethyl-3,4-dihydro-2(1H)-quinoxalinon-7-yl)acetamide]	A (A2 value of less than 100 nM)
COCCN(CCOC)C1Cc2ccc(NC(=O)/C=C3\CCCOc4cc(C(F)(F)F)ccc43)cc2NC1=O (centres unmarked) [EXAMPLE 44]	A (A2 value of less than 100 nM)
COCCN(C)C1Cc2ccc(NC(=O)/C=C3\CCCOc4cc(C(F)(F)F)ccc43)cc2NC1=O (centres unmarked) [EXAMPLE 45, (E)-2-(8-trifluoromethyl-3,4-dihydrobenzo[b]oxepin-5-(2H)-ylidene)-N-(3-(N-methyl-N-(2-methoxyethyl)amino)-3,4-dihydro-2(1H)-quinolinon-7-yl)acetamide]	A (A2 value of less than 100 nM)
O=C(/C=C1\CCCOc2cc(C(F)(F)F)ccc21)Nc1ccc2c(c1)NC(=O)C(N1CCCC1)C2 (centres unmarked) [EXAMPLE 46]	A (A2 value of less than 100 nM)
O=C(/C=C1\CCCOc2cc(C(F)(F)F)ccc21)Nc1ccc2c(c1)NC(=O)C(N1CC[C@@H](F)C1)C2 (stereo partly drawn) [EXAMPLE 47, (E)-2-(8-trifluoromethyl-3,4-dihydrobenzo[b]oxepin-5(2H)-ylidene)-N-(3-((3S)-fluoropyrrolidin-1-yl)-3,4-dihydro-2(1H)-quinolinon-7-yl)acetamide]	A (A2 value of less than 100 nM)

Continued, values first:

A2 value	SMILES
A (A2 value of less than 100 nM)	CN1CC(=O)Nc2cc(NC(=O)/C=C3\CCCOc4cc(C(F)(F)F)ccc43)ccc21 [EXAMPLE 8, (E)-2-(8-trifluoromethyl-3,4-dihydrobenzo[b]oxepin-5 (2H)-ylidene)-N-(4-methyl-3,4-dihydro-2(1H)-quinoxalinon-7-yl)acetamide]
A (A2 value of less than 100 nM)	O=C(/C=C1\CCCOc2cc(C(F)(F)F)ccc21)Nc1ccc2c(c1)NC(=O)C(CO)N2 (centres unmarked) [EXAMPLE 9, (E)-2-(8-trifluoromethyl-3,4-dihydrobenzo[b]oxepin-5(2H)-ylidene)-N-(3-hydroxymethyl-3,4-dihydro-2(1H)-quinoxalinon-7-yl)acetamide]
A (A2 value of less than 100 nM)	O=C(/C=C1\CCCOc2cc(C(F)(F)F)ccc21)Nc1ccc2c(c1)NC(=O)OC2 [EXAMPLE 12, (E)-2-(8-trifluoromethyl-3,4-dihydrobenzo[b]oxepin-5(2H)-ylidene)-N-(1,4-dihydro-2H-3,1-benzoxadin-2-on-7-yl)acetamide]
A (A2 value of less than 100 nM)	O=C(/C=C1\CCCOc2cc(C(F)(F)F)ccc21)Nc1cccc2c1CCC(=O)N2CCO [EXAMPLE 19, (E)-2-(8-trifluoromethyl-3,4-dihydrobenzo[b]oxepin-5(2H)-ylidene)-N-(1-(2-hydroxyethyl)-3,4-dihydro-2(1H)-quinolinon-5-yl)acetamide]
A (A2 value of less than 100 nM)	O=C(/C=C1\CCCOc2cc(C(F)(F)F)ccc21)Nc1cccc2c1OCC(=O)N2 [EXAMPLE 20, (E)-2-(8-trifluoromethyl-3,4-dihydrobenzo[b]oxepin-5(2H)-ylidene)-N-(2H-1,4-benzoxazin-3(4H)-on-8-yl)acetamide]
A (A2 value of less than 100 nM)	O=C(/C=C1\CCCOc2cc(C(F)(F)F)ccc21)Nc1cccc2c1NCC(=O)N2 [EXAMPLE 21, (E)-2-(8-trifluoromethyl-3,4-dihydrobenzo[b]oxepin-5(2H)-ylidene)-N-(3,4-dihydro-2 (1H)-quinoxalinon-5-yl)acetamide]
A (A2 value of less than 100 nM)	CN1CC(=O)Nc2cccc(NC(=O)/C=C3\CCCOc4cc(C(F)(F)F)ccc43)c21 [EXAMPLE 22, (E)-2-(8-trifluoromethyl-3,4-dihydrobenzo[b]oxepin-5(2H)-ylidene)-N-(3,4-dihydro-4-methyl-2 (1H)-quinoxalinon-5-yl)acetamide]
A (A2 value of less than 100 nM)	O=C(/C=C1\CCCOc2cc(C(F)(F)F)ccc21)Nc1ccc2c(c1)NC(=O)C(CO)C2 (centres unmarked) [EXAMPLE 28, (E)-2-(8-trifluoromethyl-3,4-dihydrobenzo[b]oxepin-5(2H)-ylidene)-N-(3-hydroxymethyl-3,4-dihydro-2(1H)-quinolinon-7-yl)acetamide]
A (A2 value of less than 100 nM)	CC1(C)Cc2ccc(NC(=O)/C=C3\CCCOc4cc(C(F)(F)F)ccc43)cc2NC1=O [EXAMPLE 29, (E)-2-(8-trifluoromethyl-3,4-dihydrobenzo[b]oxepin-5(2H)-ylidene)-N-(3,3-dimethyl-3,4-dihydro-2(1H)-quinolinon-7-yl)acetamide]
A (A2 value of less than 100 nM)	O=C1CNc2cccc(NC(=O)/C=C3\CCCOc4cc(C(F)(F)F)ccc43)c2C1 [EXAMPLE 36, (E)-2-(8-trifluoromethyl-3,4-dihydrobenzo[b]oxepin-5(2H)-yliden)-N-(3-oxo-1,2,3,4-tetrahydroquinolin-5-yl)acetamide]
A (A2 value of less than 100 nM)	O=C(/C=C1\CCCOc2cc(C(F)(F)F)ccc21)Nc1ccc(OCCCO)c2c1CCC(=O)N2 [EXAMPLE 37, (E)-2-(8-trifluoromethyl-3,4-dihydrobenzo[b]oxepin-5(2H)-ylidene)-N-(8-(3-hydroxypropoxy)-3,4-dihydro-2(1H)-quinolinon-5-yl)acetamide]
